Data published in patent publication US9976141B2, “Compositions and methods for inhibiting gene expression of Hif2alpha” (Arrowhead Madison Inc., priority 2015, dated 2018).
Strand notation (5' to 3'): a small letter for the sugar, then the base; units joined by * are phosphorothioate-linked, units joined directly phosphodiester-linked; [ ] holds rarer units or linkages, { } end groups; capitals alone tell only the bases. d = 2'-deoxy (DNA); m = 2'-O-methyl; f = 2'-fluoro

System: human EPAS1 (Hif2α) cDNA in psiCHECK2 (Renilla luciferase/EPAS1 fusion mRNA) in Hep3B cells
Test: Efficacy screen of Hif2α RNAi triggers in vitro, dual-luciferase reporter assay (1 nM and 0.1 nM)
Assay type: cell-based
Details: Hep3B cells co-transfected with EPAS1-psiCHECK2, Renilla luciferase normalized to firefly luciferase
Procedure, shortened: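 Hep3B cells (10,000/well) co-transfected with chemically modified siRNA triggers at 1 nM and 0.1 nM plus 25 ng EPAS1-psiCHECK2 plasmid via LipoFectamine 2000. Knockdown measured as Renilla luciferase from the EPAS1 fusion mRNA, normalized to constitutive firefly luciferase by dual-luciferase assay.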

Row | Substance | Relative Rluc-Hif2α (0.1 nM RNAi trigger) | Relative Rluc-Hif2α (1 nM RNAi trigger)
1 | 2271 (sense fGmAfAmUfUmCfUmAfCmCfAmUfGmCfGmCfUmAfAdT; antisense dTfUmAfGmCfGmCfAmUfGmGfUmAfGmAfAmUfUmCdT*dT; siRNA) [compound 2271] | 1.056 ± 0.291 | 0.930 ± 0.094
2 | 2234 (sense fCmGfAmCfUmCfCmCfAmGfCmAfUmUfCmGfAmGfAdT; antisense dTfCmUfCmGfAmAfUmGfCmUfGmGfGmAfGmUfCmGdT*dT; siRNA) [compound 2234] | 0.508 ± 0.148 | 0.388 ± 0.046
3 | 2336 (sense fAmCfAmAfGmUfUmUfGmGfUmGfCmAfUmGfUmCfAdT; antisense dTfGmAfCmAfUmGfCmAfCmCfAmAfAmCfUmUfGmUdT*dT; siRNA) [compound 2336] | 0.783 ± 0.037 | 0.299 ± 0.034
4 | 2379 (sense fUmAfCmCfAmUfGmAfGmAfUmGfGmUfUmUfAmGfAdT; antisense dTfCmUfAmAfAmCfCmAfUmCfUmCfAmUfGmGfUmAdT*dT; siRNA) [compound 2379] | 0.858 ± 0.098 | 0.939 ± 0.204
5 | 2397 (sense fAmCfCmCfUmAfCmCfUmGfUmCfAmAfCmGfUmAfAdT; antisense dTfUmAfCmGfUmUfGmAfCmAfGmGfUmAfGmGfGmUdT*dT; siRNA) [compound 2397] | 0.254 ± 0.048 | 0.119 ± 0.024
6 | 2257 (sense fGmGfAmUfGmAfAmGfUmGfCmAfCmGfGmUfCmAfAdT; antisense dTfUmGfAmCfCmGfUmGfCmAfCmUfUmCfAmUfCmCdT*dT; siRNA) [compound 2257] | 0.647 ± 0.127 | 0.802 ± 0.044
7 | 2409 (sense fUmUfAmUfAmUfUmGfUmCfGmAfAmUfUmCfCmUfAdT; antisense dTfAmGfGmAfAmUfUmCfGmAfCmAfAmUfAmUfAmAdT*dT; siRNA) [compound 2409] | 0.301 ± 0.085 | 0.104 ± 0.020
8 | 2311 (sense fCmCfAmCfAmAfAmGfUmGfGmGfCmCfGmUfCmGfAdT; antisense dTfCmGfAmCfGmGfCmCfCmAfCmUfUmUfGmUfGmGdT*dT; siRNA) [compound 2311] | 0.888 ± 0.051 | 0.841 ± 0.130
9 | 2299 (sense fAmGfUmAfCmCfCmAfGmAfCmGfGmAfUmUfUmCfAdT; antisense dTfGmAfAmAfUmCfCmGfUmCfUmGfGmGfUmAfCmUdT*dT; siRNA) [compound 2299] | 0.907 ± 0.171 | 0.827 ± 0.067
10 | 2325 (sense fGmAfCmUfAmCfAmGfCmCfUmGfUmCfGmUfCmAfAdT; antisense dTfUmGfAmCfGmAfCmAfGmGfCmUfGmUfAmGfUmCdT*dT; siRNA) [compound 2325] | 1.304 ± 0.134 | 1.379 ± 0.275
11 | 2273 (sense fUmCfUmAfCmCfAmUfGmCfGmCfUmAfGmAfCmUfAdT; antisense dTfAmGfUmCfUmAfGmCfGmCfAmUfGmGfUmAfGmAdT*dT; siRNA) [compound 2273] | 0.574 ± 0.033 | 0.588 ± 0.057
12 | 2362 (sense fAmGfCmAfCmUfGmCfGmCfGmCfUmAfUmCfCmCfAdT; antisense dTfGmGfGmAfUmAfGmCfGmCfGmCfAmGfUmGfCmUdT*dT; siRNA) [compound 2362] | 0.673 ± 0.089 | 0.454 ± 0.069
13 | 2285 (sense fCmAfUmCfUmAfCmAfAmCfCmCfUmCfGmCfAmAfAdT; antisense dTfUmUfGmCfGmAfGmGfGmUfUmGfUmAfGmAfUmGdT*dT; siRNA) [compound 2285] | 1.109 ± 0.247 | 0.723 ± 0.088
14 | 2383 (sense fGmGfUmAfAmGfAmGfGmGfAmCfGmAfCmAfCmCfAdT; antisense dTfGmGfUmGfUmCfGmUfCmCfCmUfCmUfUmAfCmCdT*dT; siRNA) [compound 2383] | 0.833 ± 0.082 | 1.060 ± 0.292
15 | 2248 (sense fCmUfAmAfCmAfGmGfAmCfAmUfAmGfUmAfUmCfAdT; antisense dTfGmAfUmAfCmUfAmUfGmUfCmCfUmGfUmUfAmGdT*dT; siRNA) [compound 2248] | 0.215 ± 0.007 | 0.148 ± 0.036
16 | 2343 (sense fCmUfCmCfAmAfCmGfUmAfUmGfUmGfGmUfUmAfAdT; antisense dTfUmAfAmCfCmAfCmAfUmAfCmGfUmUfGmGfAmGdT*dT; siRNA) [compound 2343] | 0.620 ± 0.208 | 0.254 ± 0.009
17 | 2309 (sense fUmUfUmUfGmGfGmCfCmCfAmCfAmAfAmGfUmGfAdT; antisense dTfCmAfCmUfUmUfGmUfGmGfGmCfCmCfAmAfAmAdT*dT; siRNA) [compound 2309] | 0.823 ± 0.096 | 1.081 ± 0.135
18 | 2402 (sense fAmCfCmUfGmUfCmAfAmCfGmUfAmAfCmGfAmUfAdT; antisense dTfAmUfCmGfUmUfAmCfGmUfUmGfAmCfAmGfGmUdT*dT; siRNA) [compound 2402] | 0.389 ± 0.060 | 0.128 ± 0.015
19 | 2363 (sense fUmAfUmUfGmCfUmGfCmCfAmAfGmAfGmGfGmUfAdT; antisense dTfAmCfCmCfUmCfUmUfGmGfCmAfGmCfAmAfUmAdT*dT; siRNA) [compound 2363] | 0.653 ± 0.199 | 0.452 ± 0.091
20 | 2281 (sense fUmGfCmUfCmGfCmAfAmAfGmCfAmUfGmGfGmGfAdT; antisense dTfCmCfCmCfAmUfGmCfUmUfUmGfCmGfAmGfCmAdT*dT; siRNA) [compound 2281] | 0.914 ± 0.177 | 0.651 ± 0.041
21 | 2304 (sense fAmUfGmCfCmGfGmAfAmGfCmAfAmAfGmCfAmUfAdT; antisense dTfAmUfGmCfUmUfUmGfCmUfUmCfCmGfGmCfAmUdT*dT; siRNA) [compound 2304] | 0.528 ± 0.116 | 0.302 ± 0.025
22 | 2261 (sense fAmGfGmCfCmGfUmAfCmUfGmUfCmAfAmCfCmUfAdT; antisense dTfAmGfGmUfUmGfAmCfAmGfUmAfCmGfGmCfCmUdT*dT; siRNA) [compound 2261] | 0.568 ± 0.065 | 0.657 ± 0.067
23 | 2352 (sense fAmUfCmUfGmUfGmAfUmAfUmGfCmCfAmUfAmGfAdT; antisense dTfCmUfAmUfGmGfCmAfUmAfUmCfAmCfAmGfAmUdT*dT; siRNA) [compound 2352] | 1.012 ± 0.048 | 0.749 ± 0.049
24 | 2265 (sense fAmGfAmAfCmUfGmAfUmUfGmGfUmUfAmCfCmAfAdT; antisense dTfUmGfGmUfAmAfCmCfAmAfUmCfAmGfUmUfCmUdT*dT; siRNA) [compound 2265] | 0.448 ± 0.042 | 0.186 ± 0.045
